Laboratory results from ChEMBL document CHEMBL5727943, “Composition and methods for inhibiting mammalian sterile 20-like kinase 1” (2020).

Key:
[1] = target: T1, Serine/threonine-protein kinase 3 (Homo sapiens, UniProt Q13188); experiment: (§1) MST1/MST2 Biochemical LanthaScreen Eu Kinase Binding Assay: MST1 and MST2 biochemical LanthaScreen Eu Kinase Binding Assay was based on the binding and displacement of kinase tracer to the kinase of interest. Compounds in 1000×DMSO stock solution was dispensed using automated dispensing system (Labcyte) to 384 well Corning Microplate at 15 nL, 5 uL of Kinase buffer A was added to each well. Plates were shaken and incubated for 1 min to ensure well dissolution of compounds.
T1 sequence (Q13188 whole entry): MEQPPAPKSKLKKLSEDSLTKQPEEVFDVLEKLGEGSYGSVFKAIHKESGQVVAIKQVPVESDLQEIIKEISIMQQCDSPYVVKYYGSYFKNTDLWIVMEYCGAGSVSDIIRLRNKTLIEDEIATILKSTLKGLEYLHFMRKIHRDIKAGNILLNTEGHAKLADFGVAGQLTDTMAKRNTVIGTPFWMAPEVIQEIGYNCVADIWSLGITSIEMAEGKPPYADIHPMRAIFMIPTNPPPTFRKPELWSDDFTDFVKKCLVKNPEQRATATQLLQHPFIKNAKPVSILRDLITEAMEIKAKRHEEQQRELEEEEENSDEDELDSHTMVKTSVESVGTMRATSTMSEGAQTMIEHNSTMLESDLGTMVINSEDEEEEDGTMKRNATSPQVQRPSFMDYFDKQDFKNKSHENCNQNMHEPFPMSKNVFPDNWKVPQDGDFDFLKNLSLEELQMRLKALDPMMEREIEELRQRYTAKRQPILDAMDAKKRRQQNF

[2] = target: T2, Serine/threonine-protein kinase 4 (Homo sapiens, UniProt Q13043); experiment: as §1
T2 sequence (Q13043 whole entry): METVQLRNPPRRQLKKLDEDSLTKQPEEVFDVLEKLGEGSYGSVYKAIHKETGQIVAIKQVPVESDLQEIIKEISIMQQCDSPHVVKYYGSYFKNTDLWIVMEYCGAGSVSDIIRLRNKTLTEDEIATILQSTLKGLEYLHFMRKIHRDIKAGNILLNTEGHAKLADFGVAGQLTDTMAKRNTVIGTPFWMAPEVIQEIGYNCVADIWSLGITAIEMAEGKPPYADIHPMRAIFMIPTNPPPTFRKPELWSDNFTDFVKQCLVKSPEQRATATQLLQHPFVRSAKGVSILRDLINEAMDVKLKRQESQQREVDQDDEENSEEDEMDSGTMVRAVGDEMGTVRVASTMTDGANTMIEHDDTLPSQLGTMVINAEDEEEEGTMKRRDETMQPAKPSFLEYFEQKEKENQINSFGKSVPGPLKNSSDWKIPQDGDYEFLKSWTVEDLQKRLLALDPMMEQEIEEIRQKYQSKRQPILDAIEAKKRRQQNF

IC50 [1]: < 100 nM | IC50 [2]: < 100 nM
Structure (SMILES): CCOc1cc2ncc(C#N)c(Nc3ccc(OCc4ncccc4C)cc3Cl)c2cc1NC(=O)/C=C/CN(C)C
